The target of assay [1] is T1, cortical CCK receptor (Cavia porcellus, UniProt H0VZC5).
T1 construct: Cortical and pancreatic membranes were prepared as described; from tissue; host or cells: guinea pig cerebral cortex membranes
T1 sequence (H0VZC5 1-426): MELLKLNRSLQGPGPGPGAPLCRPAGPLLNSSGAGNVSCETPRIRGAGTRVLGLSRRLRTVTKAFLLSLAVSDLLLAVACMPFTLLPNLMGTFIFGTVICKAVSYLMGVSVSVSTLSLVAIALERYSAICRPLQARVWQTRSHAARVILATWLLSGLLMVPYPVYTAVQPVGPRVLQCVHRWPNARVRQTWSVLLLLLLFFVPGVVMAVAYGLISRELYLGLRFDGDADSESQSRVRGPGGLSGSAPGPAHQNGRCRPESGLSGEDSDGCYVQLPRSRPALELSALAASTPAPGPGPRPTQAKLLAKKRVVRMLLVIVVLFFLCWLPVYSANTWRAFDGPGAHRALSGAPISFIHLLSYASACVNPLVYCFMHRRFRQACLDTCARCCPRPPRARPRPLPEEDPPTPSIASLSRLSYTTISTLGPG
The assay can be described thus: Radioligand binding ([125I]Bolton-Hunter CCK8) in guinea pig cerebral cortical membranes. The following applies: displacement of [125I]BH-CCK8, cortical membranes, 30°C for 150 min, Hill analysis; read-out: IC₅₀ (nM) cortex. An excerpt: Protocol for Radioligand Binding Experiments in Guinea Pig Cerebral Cortical and Pancreatic Membrance Preparations
CCK8 (Asp-Tyr(SO₃H)-Met-Gly-Trp-Met-Asp-Phe-NH₂), bestatin and phosphormaidon were purchased from Peptide International (Louisville, KY). EGTA, HEPES, BSA were purchased from Sigma Chemical Co. (St. Louis, MO). [¹²⁵I]-Bolton-Hunter CCK8 (BH-CCK8) (specific activity, 2200 Ci, mmol) was obtained from New England Nuclear (Boston, MA). Male ginea pigs, 250 to 325 g, were obtained from Scientific Small Animal Laboratory and Farm (Arlington Heights, IL). Collangenase, code CLSPA was purchased from Worthington (Frehold, NJ).
Cortical and pancreatic membranes were prepared as described (Lin and Miller; J. Pharmacol. Exp. Ther. 232, 775-780, 1985). In brief, pancreas and cortex were removed and rinsed with ice-cold saline. Visible fat and connective tissues were removed from the pancreas. Tissues were weighed and homogenized in approximately 25 mL of ice-cold 50 mM Tris-HCl buffer, pH 7.4 at 4°C with a Brinkman Polytron for 30 sec, setting 7. The homogenates were centrifuged for 10 min at 1075 x g and the pellet was discarded. The supernantants were saved and centrifuged at 38,730 x g for 20 min. The resultant pellets were rehomogenized in 25 mL of 50 mM Tris-HCl buffer with a Teflon-glass homogenizer, 5 up and down strokes. The homogenates were centrifuged again at 38,730 x g for 20 min. The pellets were then resuspended in 20 mM HEPES, containing 1 mM EGTA, 118 mM NaCl, 4.7 mM KCl, 5mM MgCl₂, 100 uM bestatin, 3 uM phosphoramidon, pH 7.4 at 22°C with a Teflon-glass homogenizer, 15 up and down strokes. The resuspension volume used for the cortex was 15 mL per g of original wet weight and 60 mL per g for pancreas.
[¹²⁵I]Bolton-Hunter CCK8 and test compounds were diluted with HEPES-EGTA-salt buffer (see above) containing 0.5% bovine serum albumin (BSA). To 1 mL Skatron polystyrene tubes were added 25 uL of test compounds, 25 uL of [¹²⁵I]BH-CCK8 and 200 uL of membrane suspension. The final BSA concentration was 0.1%. The cortical tissues were incubated at 30°C for 150 min. and pancreatic tissues were incubated at 37°C for 150 min. Incubations were terminated by filtration using Skatron Cell Harvester and SS32 microfiber filter mats. The specific binding of [¹²⁵I]BH-CCK8, defined as the difference betwen binding in the absence and presence of 1 uM CCK8, was 85-90% of total binding in cortex and 90-95% in pancreas. IC₅₀s were determined from the Hill analysis.

Assay [2] has as its system VTA neurons. The assay can be described thus: Potentiation of ethanol-induced excitation of VTA neurons in rat brain slices (extracellular recording). It counts as cell-based, Sprague-Dawley rats. Conditions: ethanol 80 to 160 mM, agonist infused at least 10 minutes before ethanol. The protocol:
Brain slices form Sprague-Dawley rats (100-200 gm) containing the ventral tegmental area were prepared as previously described (Brodie and Dunwiddie, Brain Research, 425, 106 (1987)). Animals used in this study were treated in strict accordance with the NIH Guide for the Care and use of Laboratory Animals. Coronal sections (400 um thick) were cut and the tissue was place directly in the recording chamber. Small platinum weights were placed on the slice to increase the stability of recordings. The slice was covered with medium and a superfusion system then maintained the flow of medium at 2 ml/min; the temperature in the recording chamber was kept at 35°C. […] The flow rate was continuously monitored with a flowmeter and adjustable valves were used to keep the rate constant. […]
Ethanol and the CCK agonist compound were added to the aCSF in the fluid delivery tubing by means of a calibrated infusion pump from stock solutions 100 to 1000 times the desired final concentrations. Final concentrations were calculated from aCSF flow rate, pump infusion rate and concentration of drug stock solution. […]
Frequency of firing was determined using a window discriminator and ratemeter, the output of which was fed to a chart recorder. […]

`CCC[C@H]1CCN(C(=O)[C@@H]2Cc3c[nH]c4cccc(c34)CC(=O)N2)[C@@H]1C(=O)N[C@@H](CC(=O)O)C(=O)N[C@@H](Cc1ccccc1)C(N)=O` [Example 48, Ctp-Tpp-Asp-Phe-NH₂]: the IC50 in assay [1] was found to be 0.7 nM. Further, in assay [2], the “effect on excitatory effect of ethanol on VTA neurons (firing rate)” value is given as “increases the excitatory effect of ethanol on VTA neurons”.

The values above are taken from EP0405506A1, “Tetrapeptide type-B CCK receptor ligands” (ABBOTT LABORATORIES, priority 1989, dated 1991).
